Assay results published in US20220071952A1, “METHODS OF TREATING AND PREVENTING HEPATOTOXICITY” (Natreon, Inc., priority 2020, published 2022).
Several values for one entry are separate records, joined by “and”; a condition that tells them apart may be missing. Identical values can stand only once.

What was measured:
[1] = system: CCl4-induced hepatotoxicity in mice; assay: Synergistic hepatoprotective activity of DBPs against CCl4-induced hepatotoxicity (Example IV); conditions: for hepatoprotective activity (conclusion, Tables 19 and 20): CCl4-induced hepatotoxicity, male and female mice; for ACP / ALP / ALT / AST / Total Protein: CCl4 1 ml/kg, mean ± SEM, n=4
[2] = system: CCl4-induced hepatotoxicity in mice; assay: Carbon tetrachloride (CCl4)-induced hepatotoxicity in mice, serum biochemical parameters (Example II); format: in vivo, Swiss albino mice; conditions: for effect on CCl4-induced hepatotoxicity (ALT, AST, bilirubin, total protein vs CCl4 group) / effect on CCl4-induced lipid peroxidation (MDA): mice; for ALT / AST / MDA / Total Bilirubin / Total Protein: 10 mg/kg p.o. 7 days + CCl4 (30%) 1 ml/kg i.p., serum, mean ± SD, n=6; for hepatoprotective activity against carbon tetrachloride-induced liver damage: males and females
Protocol: (§1) Swiss albino mice of both sexes, weighing approximately 25-30 g, were obtained from National Research Institute of Ayurveda for Drug Development (Govt. of India), Kolkata, and were housed in polypropylene cages at 22±3° C., relative air humidity of 45 to 55%, with 12.00 hr light and dark cycle (lighting on from 6:00 AM to 6:00 PM) and were provided standard pellet chow (carbohydrate 65.5%, protein 17.6%, fat 6.6%) and distilled water ad libitum. The mice were acclimatized for one week in the laboratory conditions before being used in the experiment. All experiments were conducted between 10.00 hr and 14.00 hr. Principles of laboratory animals care (NIH publication no. 85-23, revised 1985) were followed.

[3] = system: paracetamol-induced hepatotoxicity in mice; assay: Paracetamol-induced hepatotoxicity in mice, serum biochemical parameters (Example I); format: in vivo, Swiss albino mice; conditions: for effect on paracetamol-induced hepatotoxicity (ALT, AST, triglyceride, bilirubin vs paracetamol group): 10 mg/kg body weight, male (Table 2) and female (Table 3) mice; for hepatoprotective activity against paracetamol, comparison of both test compounds: 10 mg/kg orally for 7 days; for ALP / ALT / AST / Total Bilirubin / Total Protein / Triglyceride: 10 mg/kg p.o. + paracetamol 200 mg/kg p.o., 7 days, serum, mean ± SD, n=6
Text: 3-OH-DBP (Natreon, Inc., New Brunswick, N.J., synthesized to 99% purity w/w) was in the form of a white free flowing powder. 3,8-(OH)2-DBP (Natreon, Inc., New Brunswick, N.J., synthesized to 99% purity w/w) was in the form of a pale green free flowing powder. Paracetamol (acetaminophen) was in the form of a white solid tablet.
as §1, with “to 6:00 PM). Mice were provided” for “to 6:00 PM) and were provided”, “in the above laboratory conditions,” for “in the laboratory conditions”, “above laboratory conditions, before being” for “the laboratory conditions before being”, “used in this experiment. All” for “used in the experiment. All”, “of laboratory animal care (NIH” for “of laboratory animals care (NIH”
The animals were randomly assigned into four groups of six animals each, as set out in Table 1. […] After 1 hr of last treatment, blood samples were collected and serum was separated.

[4] = female mice, doses 3-OH-DBP 2, 3,8-(OH)2-DBP 10, 1:5 combination 12 mg/kg b.w.
[5] = female mice, doses 3-OH-DBP 10, 3,8-(OH)2-DBP 50, 1:5 combination 60 mg/kg b.w.
[6] = male mice, doses 3-OH-DBP 2, 3,8-(OH)2-DBP 10, 1:5 combination 12 mg/kg b.w.
[7] = male mice, doses 3-OH-DBP 10, 3,8-(OH)2-DBP 50, 1:5 combination 60 mg/kg b.w.
[8] = female mice, paracetamol 200 mg/kg

## O=c1oc2cc(O)ccc2c2ccc(O)cc12 [3,8-(OH)2-DBP, 3,8-dihydroxy-dibenzo-alpha-pyrone]
[1]
  hepatoprotective activity (conclusion, Tables 19 and 20): hepatoprotective activity in a dose dependent manner
[1]; [4]
  ACP: 48 ± 4 (c) U/L
  ALP: 89 ± 5.1 (c) IU/L
  ALT: 68 ± 6.5 (c) IU/L
  AST: 57 ± 8 (c) ^ IU/L
  Total Protein: 4.9 ± 0.21 g/dL
  ACP, difference in values from CCl4 treated mice: B = (a-c = 32) U/L
  ALP, difference in values from CCl4 treated mice: B = (a-c = 1) IU/L
  ALT, difference in values from CCl4 treated mice: B = (a-c = 19) IU/L
  AST, difference in values from CCl4 treated mice: B = (a-c = 48) IU/L
[1]; [5]
  ACP: 28 ± 5.1 (f) U/L
  ALP: 68 ± 8 (f) ^ IU/L
  ALT: 62 ± 3.6 (f) IU/L
  AST: 41 ± 14^###(f) IU/L
  Total Protein: 6.6 ± 0.16 g/dL
  ACP, difference in values from CCl4 treated mice: E = (a-f = 52) U/L
  ALP, difference in values from CCl4 treated mice: E = (a-f = 22) IU/L
  ALT, difference in values from CCl4 treated mice: E = (a-f = 25) IU/L
  AST, difference in values from CCl4 treated mice: E = (a-f = 64) IU/L
[1]; [6]
  ACP: 48 ± 7.2***,#(c) U/L
  ALP: 89 ± 5.1*,,#(c) IU/L
  ALT: 68 ± 5.1 (c) IU/L
  AST: 70 ± 4.4##(c) IU/L
  Total Protein: 6.3 ± 0.36 g/dL
  ACP, difference in values from CCl4 treated mice: B = (a-c = 38) U/L
  ALP, difference in values from CCl4 treated mice: B = (a-c = 53) IU/L
  ALT, difference in values from CCl4 treated mice: B = (a-c = 12) IU/L
  AST, difference in values from CCl4 treated mice: B = (a-c = 33) IU/L
[1]; [7]
  ACP: 46 ± 2.5 (f)^ U/L
  ALP: 68 ± 8##(f) ^ IU/L
  ALT: 60 ± 2.5 (f) IU/L
  AST: 58 ± 1.9###(f)^ IU/L
  Total Protein: 6 ± 0.40 g/dL
  ACP, difference in values from CCl4 treated mice: E = (a-f = 20) U/L
  ALP, difference in values from CCl4 treated mice: E = (a-f = 74) IU/L
  ALT, difference in values from CCl4 treated mice: E = (a-f = 20) IU/L
  AST, difference in values from CCl4 treated mice: E = (a-f = 45) IU/L
[1]; male mice, CCl4 study of Example IV
  Relative liver weight: significantly increased
[2]; 10 mg/kg p.o.
  effect on CCl4-induced hepatotoxicity (ALT, AST, bilirubin, total protein vs CCl4 group): significantly attenuated and reversed the CCl4-induced hepatotoxicity
  effect on CCl4-induced lipid peroxidation (MDA): significantly lowered CCl4-induced lipid peroxidation
  hepatoprotective activity against carbon tetrachloride-induced liver damage: significant hepatoprotective activity
[2]; female mice
  ALT: 60.99 ± 13.49 IU/L
  AST: 12.95 ± 2.46 IU/L
  MDA: 6.53 ± 0.66 nmol/mL
  Total Bilirubin: 0.60 ± 0.18 mg/dL
  Total Protein: 4.02 ± 0.3 g/dL
[2]; females, 10 mg/kg p.o.
  hepatoprotective activity against carbon tetrachloride-induced liver damage, in comparison to 3-OH-DBP: better hepatoprotective activity
[2]; male mice
  ALT: 64.78 ± 4.65 IU/L
  AST: 13.04 ± 3.74 IU/L
  Total Bilirubin: 0.48 ± 0.14 mg/dL
  Total Protein: 0.00412 ± 0.00086 g/dL
[2]; male mice, 10 mg/kg
  MDA: 6.59 nmol/mL and 6.59 ± 0.82 nmol/mL
[3]
  effect on paracetamol-induced hepatotoxicity (ALT, AST, triglyceride, bilirubin vs paracetamol group): significantly attenuated and reversed the paracetamol-induced hepatotoxicity
[3]; [8]
  hepatoprotective activity against paracetamol, comparison of both test compounds: almost the same hepatoprotective activity
[3]; female mice
  ALP: 105.1 ± 12.40 IU/L
  ALT: 76.91 ± 16.87 IU/L
  AST: 51.76 IU/L and 51.76 ± 3.72 IU/L
  Total Bilirubin: 0.58 ± 0.30 mg/dL
  Total Protein: 0.00541 ± 0.00049 g/dL
  Triglyceride: 45.13 ± 0.80 mg/dL
[3]; male mice
  ALP: 107.1 ± 19.11 IU/L
  ALT: 95.97 ± 29.52 IU/L
  AST: 85.75 ± 11.59 IU/L
  Total Bilirubin: 0.48 ± 0.14 mg/dL
  Total Protein: 5.53 ± 0.23 g/dL
  Triglyceride: 57.06 ± 0.90 mg/dL

## O=c1oc2cc(O)ccc2c2ccccc12 [3-OH-DBP, 3-hydroxy-dibenzo-alpha-pyrone]
[1]
  hepatoprotective activity (conclusion, Tables 19 and 20): hepatoprotective activity in a dose dependent manner
[1]; [4]
  ACP: 48 ± 5.6 (b) U/L
  ALP: 75 ± 13 (b) IU/L
  ALT: 81 ± 7 (b) IU/L
  AST: 90 ± 4.2 (b) IU/L
  Total Protein: 4.7 ± 0.59 g/dL
  ACP, difference in values from CCl4 treated mice: A = (a-b = 32) U/L
  ALP, difference in values from CCl4 treated mice: A = (a-b = 15) IU/L
  ALT, difference in values from CCl4 treated mice: A = (a-b = 6) IU/L
  AST, difference in values from CCl4 treated mice: A = (a-b = 15) IU/L
[1]; [5]
  ACP: 55 ± 4.1 (e) U/L
  ALP: 78 ± 6.9 (e) IU/L
  ALT: 75 ± 7.6*(e) IU/L
  AST: 69 ± 4.9 (e) IU/L
  Total Protein: 7.2 ± 0.23 g/dL
  ACP, difference in values from CCl4 treated mice: D = (a-e = 26) U/L
  ALP, difference in values from CCl4 treated mice: D = (a-e = 12) IU/L
  ALT, difference in values from CCl4 treated mice: D = (a-e = 12) IU/L
  AST, difference in values from CCl4 treated mice: D = (a-e = 36) IU/L
[1]; [6]
  ACP: 49 ± 3.6***,#( b) U/L
  ALP: 79 ± 12#(b) IU/L
  ALT: 72 ± 3.4**(b) IU/L
  AST: 70 ± 4##(b) IU/L
  Total Protein: 5.6 ± 0.37 g/dL
  ACP, difference in values from CCl4 treated mice: A = (a-b = 37) U/L
  ALP, difference in values from CCl4 treated mice: A = (a-b = 63) IU/L
  ALT, difference in values from CCl4 treated mice: A = (a-b = 8) IU/L
  AST, difference in values from CCl4 treated mice: A = (a-b = 33) IU/L
[1]; [7]
  ACP: 47 ± 2.6 (e) U/L
  ALP: 78 ± 6.9#(e) IU/L
  ALT: 67 ± 3.6 (e) IU/L
  AST: 69 ± 2.7 (e) IU/L
  Total Protein: 6.3 ± 0.46 g/dL
  ACP, difference in values from CCl4 treated mice: D = (a-e = 39) U/L
  ALP, difference in values from CCl4 treated mice: D = (a-e = 64) IU/L
  ALT, difference in values from CCl4 treated mice: D = (a-e = 13) IU/L
  AST, difference in values from CCl4 treated mice: D = (a-e = 34) IU/L
[2]; 10 mg/kg p.o.
  effect on CCl4-induced hepatotoxicity (ALT, AST, bilirubin, total protein vs CCl4 group): significantly attenuated and reversed the CCl4-induced hepatotoxicity
  effect on CCl4-induced lipid peroxidation (MDA): significantly lowered CCl4-induced lipid peroxidation
  hepatoprotective activity against carbon tetrachloride-induced liver damage: significant hepatoprotective activity
[2]; female mice
  ALT: 67.34 ± 12.07 IU/L
  AST: 17.48 ± 5.67 IU/L
  MDA: 8.13 ± 0.167 nmol/mL
  Total Bilirubin: 0.53 ± 0.21 mg/dL
  Total Protein: 3.92 ± 0.88 g/dL
[2]; male mice
  ALT: 58.21 ± 6.79 IU/L
  AST: 12.33 ± 3.29 IU/L
  Total Bilirubin: 0.50 ± 0.23 mg/dL
  Total Protein: 0.00355 ± 0.00031 g/dL
[2]; male mice, 10 mg/kg
  MDA: 7.04 nmol/mL and 7.04 ± 0.09 nmol/mL
[3]
  effect on paracetamol-induced hepatotoxicity (ALT, AST, triglyceride, bilirubin vs paracetamol group): significantly attenuated and reversed the paracetamol-induced hepatotoxicity
[3]; [8]
  hepatoprotective activity against paracetamol, comparison of both test compounds: almost the same hepatoprotective activity
[3]; female mice
  ALP: 82.04 ± 8.96 IU/L
  ALT: 62.32 ± 15.97 IU/L
  AST: 62.28 ± 12.46 IU/L
  Total Bilirubin: 0.46 ± 0.26 mg/dL
  Total Protein: 6.6 ± 0.44 g/dL
  Triglyceride: 61.05 ± 1.73 mg/dL
[3]; male mice, 10 mg/kg orally once daily for 7 days, paracetamol 200 mg/kg
  hepatoprotective activity against paracetamol-induced liver damage, in comparison with 3,8-(OH)2-DBP: better hepatoprotective activity
[3]; male mice
  ALP: 80.00 ± 5.64 IU/L
  ALT: 65.42 ± 23.50 IU/L
  AST: 52.23 ± 3.73 IU/L
  Total Bilirubin: 0.50 ± 0.23 mg/dL
  Total Protein: 6.27 ± 0.14 g/dL
  Triglyceride: 97.65 ± 1.96 mg/dL
